How the values were obtained:
[1] = target: T1, HIV-1 protease (Human immunodeficiency virus type 1 group M subtype B, UniProt P04585); test: HIV Protease Inhibition Assay - HPLC Method; format: biochemical; conditions: single-chain tethered dimer of HIV protease, pH 5.5
T1 construct: synthetic gene coding for a single-chain tethered dimer of HIV protease; second copy of HIV protease joined in the same chain by a tether (single-chain tethered dimer); made in house
Description: Protease: Inclusion bodies of E. coli harboring plasmid containing plasmid T1718R with a synthetic gene coding for a single-chain tethered dimer of HIV protease were prepared as described in Cheng et al. (Proc. Natl. Acad. Sci. USA, 87, 9660-9664, 1990). Active protease was prepared as described therein by extraction with 67% acetic acid, dilution 33-fold with water, dialysis against water and then against a "refolding buffer" consisting of 20 mM MES, 1 mM dithiothreitol and 10% glycerol. Protease was stored as a stock preparation at 10 uM in refolding buffer. […]
HPLC measurement of product formation: The product (aminobenzoyl-Ala--Thr--His--Gln--Val--Tyr) was separated from substrate on a Pharmacia MonoQ anion exchange column. […] Detection with a Shimadzu model RF535 fluorescence monitor was at 330 nm (excitation) and 430 (emission). The Ki was calculated from the formula Ki=I/(((Km+S-FA*S)/(FA*Km))-1) where I=inhibitory concentration, S=substrate concentration, FA=fractional activity=cm peak height with inhibitor/cm peak height without inhibitor, and Km=Michaelis constant=20 uM.
In the Tables herein the Ki values were determined using the assay conditions described above under HIV Protease Inhibition Assay-HPLC Method. […]

[2] = tested on: HIV(3B) or HIV(RF) in MT-2 cells; test: HIV Low Multiplicity Assay (whole cell infectivity assay); format: cell-based; conditions: Human immunodeficiency virus 1, MT2, 168 h, 7 days, XTT, 90% protection from virus induced cell death
Description: Materials: MT-2, a human T-Cell line, was cultured in RPMI medium supplemented with 5% (v/v) heat inactivated fetal calf serum (FCS), L-glutamine and gentamycin (GIBCO). Human immunodeficiency virus strains HIV (3B) and HIV (RF) were propagated in H-9 cells in RPMI with 5% FCS. XTT, benzene-sulfonic acid, 3,3'-[1-[(phenyl-amino) carbonyl]-3,4-tetrazolium]bis(4-methoxy-6-nitro)-, sodium salt, was obtained from Starks Associates, Inc.
Method: Test compounds were dissolved in dimethylsulfoxide to 5 mg/ml and serially diluted into RPMI medium to ten times the desired final concentration. MT-2 cells (5×10^4 /0.1 mL) were added to each well of a 96 well culture plate and 0.02 mL of the appropriate test compound solution was added to the cells such that each compound concentration was present in two wells. The cells and compounds were allowed to sit for 30 minutes at room temperature. […] The percentage of cells protected from virus induced cell death was determined by the degree of metabolism of the tetrazolium dye, XTT. In living cells, XTT was metabolized to a colored formazan product which was quantitated spectrophotometrically at 450 nm. […]
In the Tables herein the IC90 values were determined using the assay conditions described above under HIV Low Multiplicity Assay. […]

| SMILES | Ki [1] | IC90 [2] |
| --- | --- | --- |
| O=C1N[C@H](Cc2ccccc2)[C@H](O)CN(Cc2ccccc2)[C@H]1Cc1ccccc1 [Example 24] | 10 to 1000 nM | < 10 µg/mL |
| O=C1N[C@H](Cc2ccccc2)[C@H](O)CN[C@H]1Cc1ccccc1 [Example 1] | < 10 nM | < 10 µg/mL |

— patent US5663333A, “Substituted 1,4-diazapine caprolactams useful for treatment of HIV disease” (The DuPont Merck Pharmaceutical Company, priority 1993, dated 1997)
